For experiment [1], the system named is MCF7 cells. The experiment in a line: MCF7 cell proliferation. It counts as cell-based. The note with it: 10 μM, 48 h.
Experiment [2] has as its system HCC38 cells. The experiment in a line: HCC38 cell proliferation. It counts as cell-based. The note with it: 10 μM, 48 h.
In experiment [3] the test system is HCC38 cells. As to the kind of experiment: HCC38 serum-free cell survival. It is filed as cell-based. The note with it: 10 μM, 48 h.
Experiment [4] has as its target T1, pure human KEAP1 (Homo sapiens, UniProt Q14145).
T1 construct: purchased Origene
As to the kind of experiment: Gel-based ABPP, competition against IAyne labeling. It counts as binding. Particulars: 10 μM, 30 min at 37° C. How it is done: (§1) Gel-based ABPP methods were performed using the methods described in “Chem Biol 22(10), 1394-1405 (2015)” by Medina-Cleghorn D., et al. Recombinant pure human proteins were purchased from Origene. Pure proteins were pre-treated with DMSO, Withaferin A, or acrylamide or chloroacetamide compounds (e.g., DKM 2-90 or JNS 1-40) for 30 minutes at 37° C. in an incubation volume of PBS (50 μL), and were subsequently treated with IAyne (10 μM final concentration) for 30 minutes at room temperature. CuAAC was performed to append rhodamine-azide onto IAyne probe-labeled proteins. The samples were separated by SDS/PAGE and scanned using a ChemiDoc MP. Inhibition of target labeling was assessed by densitometry using ImageStudio Light software.

Experiment [5] concerns the target T2, pure human vimentin (Homo sapiens, UniProt P08670).
T2 construct: purchased Origene
As to the kind of experiment: Gel-based ABPP, competition against IAyne labeling. Particulars: 10 μM, 30 min at 37° C. It counts as binding. How it is done: as §1

Experiment [6] addresses T3, PP2A complex with wild-type PPP2R1A, PPP2R2A and PPP2CA (Homo sapiens, UniProt P30153).
T3 construct: PPP2CA protein TP301334) TP301334; host or cells: HEK293T
As to the kind of experiment: In vitro PP2A activity assay (phosphate release from phosphopeptide). It is filed as biochemical. Particulars: 30 min prior to assay. As to the method: Wild-type mammalian expression plasmids with C-terminal FLAG tag were purchased from Origene (PPP2R1A: RC200056; PPP2R2A, MR207137). The PPP2R1A C337A mutant was generated with Agilent QuickChange Lightning site-directed mutagenesis kit according to manufacturer's instructions. […] Immediately prior to transfection, media was replaced with DMEM+5% FBS. Each plate was transfected with 20 μg of overexpression plasmid with 100 μg PEI (Sigma). After 48 hrs cells were collected in TBS, lysed by sonication, and batch bound with anti-DYKDDDDK (SEQ ID NO: 1) resin (GenScript) for 1 hr. Lysate and resin was loaded onto a gravity flow column and washed, followed by elution with 250 ng/uL 3×FLAG peptide (ApexBio A6001). Purity and concentration were verified by PAGE, UV/Spectroscopy, and BCA assay.
Activity was assayed by addition of 60 μM Thr phosphopeptide (KRpTIRR, Millipore, 12-219) at 37° C. for 25 min, and free phosphate was detected colorimetrically by malachite green kit (Cayman 10009325) per manufacturer's instructions.

In experiment [7] the test system is 231MFP breast cancer cells. As to the kind of experiment: Metabolomic profiling (SRM-based LC-MS/MS) in 231MFP cells. It is filed as cell-based. The note with it: 5 h. How it is done:
For polar metabolites, cell pellets were extracted in a mixture of acetonitrile/methanol/water (40:40:20), with inclusion of D3-15N-serine (10 nM) as an internal standard. Insoluble debris was separated via centrifugation at 13,000 rpm for 10 minutes. For nonpolar metabolites, metabolomes were extracted in 2:1 chloroform:methanol (3 ml) and PBS (1 ml) with inclusion of dodecylglycerol (10 nmol) and pentadecanoic acid (10 nmol) as internal standards. Organic and aqueous layers were separated by centrifugation at 1000×g for 5 minutes; the organic layer was collected, dried under a stream of nitrogen, and then dissolved in chloroform (120 μl). An aliquot of the nonpolar or polar extracts were then injected into an Agilent 6460 or 6430 QQQ-LC/MS/MS system. Separation of polar metabolites was achieved using normal-phase chromatography with a Luna NH2 column (5 mm) using a mobile phase (Buffer A: acetonitrile; Buffer B, 95:5 water/acetonitrile; with a modifier of 0.1% formic acid or 0.2% ammonium hydroxide) along with ammonium acetate (50 mM) for positive and negative ionization mode, respectively. The following gradient was used for each run: 0% B for 5 minutes (flow rate: 0.2 mL/min), 0% B to 100% B (linear) over 15 min (flow rate: 0.7 mL/min), then followed by an isocratic gradient of 100% B for 5 minutes (flow rate: 0.7 mL/min) and then 0% B for 5 minutes (flow rate of 0.7 mL/min). For nonpolar metabolites, metabolomes were separated using reverse-phase chromatography with a Luna C5 column (50 mm×4.6 mm with 5 μm diameter particles). Mobile phase A consisted of 95:5 ratio of water/methanol and mobile phase B consisted of 2-propanol, methanol, and water in a 60:35:5 ratio. Solvent modifiers of 0.1% formic acid, 5 mM ammonium formate, and 0.1% ammonium hydroxide were used to assist ion formation as well as to improve the LC resolution in both positive and negative ionization modes, respectively. The flow rate for each run started at 0.1 ml/min for 5 minutes to alleviate backpressure associated with injecting chloroform. The gradient started at 0% B and increased linearly to 100% B over the course of 45 min with a flow rate of 0.4 ml/min, followed by an isocratic gradient of 100% B for 17 minutes at 0.5 ml/min before equilibrating for 8 minutes at 0% B with a flow rate of 0.5 ml/min.
MS analysis was performed with an electrospray ionization (ESI) source on an Agilent 6430 or 6460 QQQ LC-MS/MS system. The capillary voltage was set to 3.0 kV, and the fragmentor voltage was set to 100 V. The drying gas temperature was 350° C., the drying gas flow rate was 10 L/min, and the nebulizer pressure was 35 psi. […] Metabolite levels are expressed as relative abundances as compared to controls.

T3 sequence (P30153 whole entry): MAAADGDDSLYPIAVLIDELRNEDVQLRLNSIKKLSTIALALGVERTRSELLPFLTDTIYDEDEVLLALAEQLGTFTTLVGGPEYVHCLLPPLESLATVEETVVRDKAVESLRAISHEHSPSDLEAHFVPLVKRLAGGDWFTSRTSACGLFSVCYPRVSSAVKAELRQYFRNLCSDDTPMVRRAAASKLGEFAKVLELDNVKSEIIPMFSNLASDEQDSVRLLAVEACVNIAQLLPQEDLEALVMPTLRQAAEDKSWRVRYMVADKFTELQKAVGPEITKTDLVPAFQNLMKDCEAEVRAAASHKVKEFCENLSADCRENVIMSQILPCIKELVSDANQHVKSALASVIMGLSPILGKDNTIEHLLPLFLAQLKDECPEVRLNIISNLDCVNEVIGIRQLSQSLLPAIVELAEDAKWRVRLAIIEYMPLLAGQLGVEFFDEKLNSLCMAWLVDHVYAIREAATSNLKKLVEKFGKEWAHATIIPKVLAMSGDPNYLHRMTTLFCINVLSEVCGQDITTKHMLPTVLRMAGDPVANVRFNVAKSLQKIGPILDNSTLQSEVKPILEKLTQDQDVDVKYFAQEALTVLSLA
T3 sequence (Q6P1F6 whole entry partner): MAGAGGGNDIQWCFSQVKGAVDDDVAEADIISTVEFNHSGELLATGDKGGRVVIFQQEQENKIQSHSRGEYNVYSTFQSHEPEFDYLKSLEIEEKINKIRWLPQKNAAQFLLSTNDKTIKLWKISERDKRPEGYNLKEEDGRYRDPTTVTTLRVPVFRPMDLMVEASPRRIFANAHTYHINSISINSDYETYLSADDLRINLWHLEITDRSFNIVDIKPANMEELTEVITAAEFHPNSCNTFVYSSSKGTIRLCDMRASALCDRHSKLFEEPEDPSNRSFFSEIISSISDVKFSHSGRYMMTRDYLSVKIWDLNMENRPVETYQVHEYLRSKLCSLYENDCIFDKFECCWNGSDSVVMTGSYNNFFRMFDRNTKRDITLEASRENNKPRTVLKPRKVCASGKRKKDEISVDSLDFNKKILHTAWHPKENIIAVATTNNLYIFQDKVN
T3 sequence (P67775 whole entry partner): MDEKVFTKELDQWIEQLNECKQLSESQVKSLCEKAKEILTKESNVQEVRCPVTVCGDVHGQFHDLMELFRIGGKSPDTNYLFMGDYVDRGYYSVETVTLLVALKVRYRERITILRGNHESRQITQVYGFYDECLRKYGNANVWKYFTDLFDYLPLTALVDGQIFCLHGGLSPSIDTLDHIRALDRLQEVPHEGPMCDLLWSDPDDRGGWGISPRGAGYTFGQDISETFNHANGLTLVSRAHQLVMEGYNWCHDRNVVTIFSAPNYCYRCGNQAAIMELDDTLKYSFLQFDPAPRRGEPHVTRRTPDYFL
T1 sequence (Q14145 whole entry): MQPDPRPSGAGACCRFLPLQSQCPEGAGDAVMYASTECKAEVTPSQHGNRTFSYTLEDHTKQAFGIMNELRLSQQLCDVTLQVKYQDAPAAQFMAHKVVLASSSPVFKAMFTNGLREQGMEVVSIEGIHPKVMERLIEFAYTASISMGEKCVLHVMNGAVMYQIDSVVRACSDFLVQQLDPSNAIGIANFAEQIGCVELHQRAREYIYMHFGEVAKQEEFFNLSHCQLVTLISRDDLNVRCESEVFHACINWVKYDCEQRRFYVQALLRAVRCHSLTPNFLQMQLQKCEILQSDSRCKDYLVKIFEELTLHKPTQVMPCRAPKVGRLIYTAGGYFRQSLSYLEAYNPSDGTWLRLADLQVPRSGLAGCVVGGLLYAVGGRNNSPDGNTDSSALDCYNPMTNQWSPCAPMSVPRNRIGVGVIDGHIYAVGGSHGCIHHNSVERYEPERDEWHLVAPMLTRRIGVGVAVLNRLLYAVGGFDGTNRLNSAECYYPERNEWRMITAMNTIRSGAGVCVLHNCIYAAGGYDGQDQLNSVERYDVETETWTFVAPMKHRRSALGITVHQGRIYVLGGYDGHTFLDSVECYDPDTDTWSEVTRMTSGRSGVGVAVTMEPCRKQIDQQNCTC
T2 sequence (P08670 whole entry): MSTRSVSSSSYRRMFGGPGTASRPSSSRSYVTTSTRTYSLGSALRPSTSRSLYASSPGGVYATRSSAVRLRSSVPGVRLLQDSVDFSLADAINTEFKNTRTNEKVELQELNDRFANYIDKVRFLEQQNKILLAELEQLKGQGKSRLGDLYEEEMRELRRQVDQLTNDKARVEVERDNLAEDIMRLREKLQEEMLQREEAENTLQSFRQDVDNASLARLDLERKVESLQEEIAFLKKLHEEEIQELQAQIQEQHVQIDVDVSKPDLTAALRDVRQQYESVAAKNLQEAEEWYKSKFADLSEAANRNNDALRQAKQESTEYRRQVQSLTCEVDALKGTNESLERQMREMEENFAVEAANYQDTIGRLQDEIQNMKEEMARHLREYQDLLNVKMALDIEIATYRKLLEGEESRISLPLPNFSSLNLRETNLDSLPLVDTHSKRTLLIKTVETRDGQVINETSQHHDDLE

For the compound `CC1=C(CO)C(=O)O[C@@H]([C@@H](C)[C@H]2CC[C@H]3[C@@H]4C[C@H]5O[C@]56[C@@H](O)C=CC(=O)[C@]6(C)[C@H]4CC[C@]23C)C1` [withaferin A, reference compound], in experiment [1], the cell proliferation result is recorded as “impairs”. For the same compound, the cell proliferation result in experiment [2] is “impairs”. Further, the serum-free cell survival entry in experiment [3] was “impairs”. Moreover, in experiment [4], the “competition against IAyne labeling of pure human KEAP1” value was “no competition”. Moreover, in experiment [5], the “competition against IAyne labeling of pure human vimentin” value is listed as “lack of competition”. Moreover, in experiment [6] (10 μM), the “PP2A activity, wild-type PPP2R1A” value is “activated PP2A activity”. Moreover, in experiment [7] (10 μM), the ATP level entry is reported as “Reductions”, the “LPA (lysophosphatidic acid) level” value is recorded as “reductions”, the “acetyl CoA level” value is on record as “reduced” and the lactic acid level result was “reduced”. For the same compound, in experiment [7] (10 μM), the phosphoenolpyruvate level entry is recorded as “reduced” and the phosphoglycerate level entry is given as “reduced”.

Regarding `O=C(CCl)Nc1ccc2c(c1)OCCO2` [DKM 2-90, 2-Chloro-N-(2,3-dihydrobenzo[β][1,4]dioxin-6-yl)acetamide], in experiment [7] (100 μM), the ATP level entry was “Reductions”, the “LPA (lysophosphatidic acid) level” value is given as “reductions”, the “acetyl CoA level” value is “reduced” and the lactic acid level entry was “reduced”. Besides, in experiment [7] (100 μM), the phosphoenolpyruvate level result was “reduced” and the phosphoglycerate level result is reported as “reduced”.

Consider `O=C(CCl)N(Cc1ccccc1)c1ccc2c(c1)OCCO2` [JNS 1-40, N-benzyl-2-chloro-N-(2,3-dihydrobenzo[b][1,4]dioxin-6-yl)acetamide], for which the “PP2A activity, wild-type PPP2R1A” value in experiment [6] (100 μM) is reported as “activated PP2A activity”.

The record behind these values is patent US20200054651A1, “COMPOSITIONS AND METHODS FOR MODULATING PPP2R1A” (The Regents of the University of California, priority 2017, published 2020).
